This passage reports IC50 results from US7071217B2, “Substituted oxindole derivatives as tyrosine kinase inhibitors” (SmithKline Beecham Corporation, priority 2000, dated 2006).

A value given as a limit tells only on which side of the number the result lay.

As a reminder, the IC50 is the concentration at which inhibition is half-maximal.

The target in the test is T1, TrkA (Homo sapiens, UniProt P04629).
T1 construct: The enzyme is a GST-fusion of the intracellular domain expressed in SF9 cells; purchased Regeneron; host or cells: SF9 cells
T1 sequence (P04629 440-796 limits assumed, species assumed): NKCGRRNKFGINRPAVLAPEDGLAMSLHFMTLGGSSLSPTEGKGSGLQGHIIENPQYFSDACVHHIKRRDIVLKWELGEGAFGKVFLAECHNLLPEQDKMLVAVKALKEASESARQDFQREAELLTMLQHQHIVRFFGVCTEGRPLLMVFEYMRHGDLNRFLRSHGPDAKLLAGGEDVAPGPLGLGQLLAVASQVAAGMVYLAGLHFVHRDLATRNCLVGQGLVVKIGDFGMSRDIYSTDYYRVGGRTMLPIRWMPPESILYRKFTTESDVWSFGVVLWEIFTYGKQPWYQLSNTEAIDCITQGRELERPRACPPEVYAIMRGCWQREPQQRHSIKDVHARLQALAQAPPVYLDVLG
Kind of test: TrkA tyrosine kinase substrate phosphorylation assay (Src peptide, 33P-ATP, p81 filter plates). It is filed as biochemical. The note with it: GST-fusion of TrkA intracellular domain; 20-40 nM TrkA, 30 uM ATP, 50 uM Src peptide, RT 120 min. The protocol:
The compounds of the present invention have valuable pharmacologic properties. Different compounds from this class are particularly effective at inhibiting the trkA kinase enzyme at concentrations which range from 0.0001 to 1 μM and additionally show specificity relative to other kinases. Substrate phosphorylation assays were carried out as follows:
Screening format: Tyrosine kinase activity is being measured using a synthetic peptide substrate. The enzyme is a GST-fusion of the intracellular domain expressed in SF9 cells. The enzyme is expressed and purified by Regeneron. The enzyme is preincubated with cold ATP and Mg to allow autophosphorylation prior to running the screen. This increases the initial rate of catalysis approximately 3 fold. The assay is performed in 96 well microtitre plates, and reaction products are detected following filtration through millipore p81 phosphocellulose plates. Assay Conditions
Molecule `CNS(=O)(=O)Cc1ccc(N/N=C2\C(=O)Nc3cc(C(C)C)c(O)c(Cl)c32)cc1` [Example 1, {4-[(2Z)-2-(4-chloro-5-hydroxy-6-isopropyl-2-oxo-1,2-dihydro-3H-indol-3-ylidene)hydrazino]phenyl}-N-methylmethanesulfonamide] yielded a 50% inhibitory concentration (IC50) of less than 10 nM.
On to `CS(=O)(=O)Nc1ccc(N/C=C2\C(=O)Nc3ccccc32)cc1` [Example 2, N-(4-{[(Z)-(2-oxo-1,2-dihydro-3H-indol-3-ylidene)methyl]amino}phenyl)methanesulfonamide], for which the IC50 is less than 10 nM.
In turn, `O=C1Nc2ccccc2/C1=C/Nc1ccc(S(=O)(=O)Nc2ccccn2)cc1` [Example 3, 4-{[(Z)-(2-oxo-1,2-dihydro-3H-indol-3-ylidene)methyl]amino}-N-(2-pyridinyl)benzenesulfonamide] gave an IC50 of 10 to 100 nM.
The molecule `Cc1nnc(NS(=O)(=O)c2ccc(N/C=C3\C(=O)Nc4ccccc43)cc2)s1` [Example 4, N-(5-methyl-1,3,4-thiadiazol-2-yl)-4-{[(Z)-(2-oxo-1,2-dihydro-3H-indol-3-ylidene)methyl]amino}benzenesulfonamide] came in with an IC50 of 10 to 100 nM.
Consider `NS(=O)(=O)c1cccc(N/C=C2\C(=O)Nc3ccccc32)c1` [Example 5, 3-{[(Z)-(2-oxo-1,2-dihydro-3H-indol-3-ylidene)methyl]amino}benzenesulfonamide], for which the IC50 was 10 to 100 nM.
